Data: patent US20230139171A1 (SITA Information Networking Computing UK Limited, priority 2019, published 2023)

Legend:
human TLR7 = target: T1, human TLR7 (Homo sapiens, UniProt Q9NYK1); experiment: TLR7 inhibition reporter assay (HEK-Blue cells, SEAP reporter, gardiquimod stimulation); type: cell-based; details: HEK-Blue cells overexpressing human TLR7, SEAP reporter, gardiquimod 7.5 μM; read-out: TLR7 IC50
T1 construct: host or cells: HEK-Blue cells
T1 sequence (Q9NYK1 27-1049): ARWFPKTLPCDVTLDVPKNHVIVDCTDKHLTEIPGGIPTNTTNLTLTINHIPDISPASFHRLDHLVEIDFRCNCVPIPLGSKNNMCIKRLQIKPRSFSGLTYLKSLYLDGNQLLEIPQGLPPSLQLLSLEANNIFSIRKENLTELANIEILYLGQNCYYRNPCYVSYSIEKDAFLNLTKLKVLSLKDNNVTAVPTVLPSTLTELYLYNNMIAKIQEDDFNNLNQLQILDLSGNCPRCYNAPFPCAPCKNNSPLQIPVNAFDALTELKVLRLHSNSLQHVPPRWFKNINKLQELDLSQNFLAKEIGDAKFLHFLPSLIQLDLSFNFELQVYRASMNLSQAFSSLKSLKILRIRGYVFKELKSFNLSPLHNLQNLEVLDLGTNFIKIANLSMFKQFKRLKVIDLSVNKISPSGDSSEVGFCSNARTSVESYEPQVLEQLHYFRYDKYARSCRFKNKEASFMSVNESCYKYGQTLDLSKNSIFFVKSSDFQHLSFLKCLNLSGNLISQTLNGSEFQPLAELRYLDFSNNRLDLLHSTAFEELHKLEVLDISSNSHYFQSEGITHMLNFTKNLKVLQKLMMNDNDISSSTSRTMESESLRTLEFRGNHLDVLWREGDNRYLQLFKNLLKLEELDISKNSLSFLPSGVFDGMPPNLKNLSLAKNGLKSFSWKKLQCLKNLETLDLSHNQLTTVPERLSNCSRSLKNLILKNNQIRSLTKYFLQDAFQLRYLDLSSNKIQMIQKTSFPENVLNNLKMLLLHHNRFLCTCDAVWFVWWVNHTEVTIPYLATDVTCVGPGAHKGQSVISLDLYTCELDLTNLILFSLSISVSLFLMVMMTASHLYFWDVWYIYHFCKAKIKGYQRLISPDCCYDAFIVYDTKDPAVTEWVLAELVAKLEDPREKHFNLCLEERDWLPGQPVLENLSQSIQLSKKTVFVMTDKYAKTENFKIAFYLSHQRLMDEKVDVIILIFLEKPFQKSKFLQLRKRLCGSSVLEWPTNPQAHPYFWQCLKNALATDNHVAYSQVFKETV
Procedure, shortened: (§1)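 Agonists used: gardiquimod 7.5 μM (TLR7), R848 15.9 μM (TLR8), ODN2006 5 nM (TLR9), added after 30 min room-temperature compound pre-treatment (0.05 nM–50 μM) of receptor-overexpressing HEK-Blue cells. SEAP reporter (NF-κB/AP-1 driven) read after 22 h at 37 °C; inhibition scaled between agonist+DMSO and reference-inhibitor wells.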

human TLR9 = target: T2, human TLR9 (Homo sapiens, UniProt Q9NR96); experiment: TLR9 inhibition reporter assay (HEK-Blue cells, SEAP reporter, ODN2006 stimulation); type: cell-based; details: HEK-Blue cells overexpressing human TLR9, SEAP reporter, ODN2006 5 nM
T2 construct: host or cells: HEK-Blue cells
T2 sequence (Q9NR96 26-1032): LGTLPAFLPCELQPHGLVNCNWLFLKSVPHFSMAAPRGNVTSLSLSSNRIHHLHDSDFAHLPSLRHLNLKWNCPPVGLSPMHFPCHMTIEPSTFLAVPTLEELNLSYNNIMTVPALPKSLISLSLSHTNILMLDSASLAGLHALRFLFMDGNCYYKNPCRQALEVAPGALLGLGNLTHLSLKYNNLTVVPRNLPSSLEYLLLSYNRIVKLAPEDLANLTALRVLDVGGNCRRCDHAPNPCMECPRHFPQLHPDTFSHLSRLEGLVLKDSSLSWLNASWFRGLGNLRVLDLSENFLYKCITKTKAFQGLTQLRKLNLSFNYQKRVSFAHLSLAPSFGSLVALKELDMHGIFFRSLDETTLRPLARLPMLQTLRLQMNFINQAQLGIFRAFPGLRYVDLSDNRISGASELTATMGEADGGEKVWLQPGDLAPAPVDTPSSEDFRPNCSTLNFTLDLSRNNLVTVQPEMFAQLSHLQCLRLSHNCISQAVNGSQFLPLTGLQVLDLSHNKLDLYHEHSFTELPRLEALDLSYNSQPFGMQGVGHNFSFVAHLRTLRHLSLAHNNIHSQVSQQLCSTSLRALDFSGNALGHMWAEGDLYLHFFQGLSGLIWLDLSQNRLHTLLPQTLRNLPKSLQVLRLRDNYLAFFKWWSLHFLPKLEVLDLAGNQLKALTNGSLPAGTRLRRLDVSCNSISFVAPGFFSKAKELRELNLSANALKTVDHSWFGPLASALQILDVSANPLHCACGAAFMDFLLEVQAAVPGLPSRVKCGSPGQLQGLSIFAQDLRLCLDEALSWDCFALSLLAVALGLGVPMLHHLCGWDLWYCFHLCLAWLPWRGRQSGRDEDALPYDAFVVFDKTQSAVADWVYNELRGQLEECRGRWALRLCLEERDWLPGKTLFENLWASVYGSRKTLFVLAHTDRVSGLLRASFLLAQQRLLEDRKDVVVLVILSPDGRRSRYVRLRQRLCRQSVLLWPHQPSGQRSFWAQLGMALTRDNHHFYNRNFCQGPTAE
Procedure, shortened: as §1

IC50 (human TLR7): 0.55 nM
IC50 (human TLR9): 10.1 µM
SMILES: COc1cc(-c2[nH]c3sc(C4CCC(NC5COC5)CC4)nc3c2C(C)C)cn2ncnc12 (single isomer, unassigned) [Example 65, N-(4-(6-isopropyl-5-(8-methoxy-[1,2,4]triazolo[1,5-a]pyridin-6-yl)-4H-pyrrolo[3,2-d]thiazol-2-yl)cyclohexyl)oxetan-3-amine]
